This is an account of results in patent US20200190043A1, “2-[[5-(TRIFLUOROMETHYL)-1,2,4-OXADIAZOL-3-YL]ARYLOXY](THIO)ACETAMIDES FOR COMBATING PHYTOPATHOGENIC FUNGI” (BASF SE, priority 2017, published 2020).

Assay [1] concerns Puccinia recondita. Nature of the assay: Curative control of brown rust on wheat (glass house trial). In kind it is in vivo. Particulars: 63 ppm active compound, wheat seedlings, untreated plants 80% diseased leaf area. As for the experimental part: (§1) A mixture was prepared of acetone and/or dimethylsulfoxide and the wetting agent/emulsifier Wettol, which is based on ethoxylated alkylphenoles, in a relation (volume) solvent-emulsifier of 99 to 1 was added to the compound to give a total of 5 ml. Water was then added to a total volume of 100 ml. This stock solution was diluted with the described solvent-emulsifier-water mixture to the given concentration. II.3) Curative Control of Brown Rust on Wheat Caused by Puccinia recondita The first two developed leaves of pot-grown wheat seedling were dusted with spores of Puccinia recondita. To ensure the success the artificial inoculation, the plants were transferred to a humid chamber without light and a relative humidity of 95 to 99% and 20 to 24° C. for 24 hours. The next day the plants were cultivated for 3 days in a greenhouse chamber at 20 to 24° C. and a relative humidity between 65 and 70%. Then the plants were sprayed to run-off with an aqueous suspension, containing the concentration of active ingredient or their mixture as described below. The plants could air-dry. Then the trial plants were cultivated for 8 days in a greenhouse chamber at 20 to 24° C. and a relative humidity between 65 and 70%. The extent of fungal attack on the leaves was visually assessed as % diseased leaf area.

Assay [2] relates to Puccinia recondita. Nature of the assay: Preventative control of brown rust on wheat (glass house trial). The following applies: 63 ppm active compound, wheat seedlings, untreated plants 80% diseased leaf area. It counts as in vivo. The method, then:
as §1, with “II.4) Preventative” for “II.3) Curative”, “sprayed to run-off with an aqueous suspension, containing the concentration of active ingredient or their mixture as described below. The next day the plants were inoculated” for “dusted”, “hours.” for “hours. The next day the plants were cultivated for 3 days in a greenhouse chamber at 20 to 24° C. and a relative humidity between 65 and 70%. Then the plants were sprayed to run-off with an aqueous suspension, containing the concentration of active ingredient or their mixture as described below. The plants could air-dry.”, “6” for “8”

As for `CN(C)C(=O)C(F)(F)Oc1ccc(-c2noc(C(F)(F)F)n2)cc1` [I-2], the diseased leaf area was determined as 3% in assay [1] and 2% in assay [2].
